Source: ChEMBL document CHEMBL1201862, “PubChem BioAssay data set” (2004)
Calls of active or inactive are those of the source. Cut-off read from the data, not from the text of the source: actives have a measured IC50 and inactives only a lower limit.

Molecular target: Envelope glycoprotein gp160 (Human immunodeficiency virus 1, UniProt Q6QLK5)
Experiment: cell-free HIV fusion peptide-binding blockers – biochemical, uHTS, fluorescence dequenching, […] (AID 1986)

Chain of Envelope glycoprotein gp160 (Q6QLK5 whole entry, the tested form may be a part): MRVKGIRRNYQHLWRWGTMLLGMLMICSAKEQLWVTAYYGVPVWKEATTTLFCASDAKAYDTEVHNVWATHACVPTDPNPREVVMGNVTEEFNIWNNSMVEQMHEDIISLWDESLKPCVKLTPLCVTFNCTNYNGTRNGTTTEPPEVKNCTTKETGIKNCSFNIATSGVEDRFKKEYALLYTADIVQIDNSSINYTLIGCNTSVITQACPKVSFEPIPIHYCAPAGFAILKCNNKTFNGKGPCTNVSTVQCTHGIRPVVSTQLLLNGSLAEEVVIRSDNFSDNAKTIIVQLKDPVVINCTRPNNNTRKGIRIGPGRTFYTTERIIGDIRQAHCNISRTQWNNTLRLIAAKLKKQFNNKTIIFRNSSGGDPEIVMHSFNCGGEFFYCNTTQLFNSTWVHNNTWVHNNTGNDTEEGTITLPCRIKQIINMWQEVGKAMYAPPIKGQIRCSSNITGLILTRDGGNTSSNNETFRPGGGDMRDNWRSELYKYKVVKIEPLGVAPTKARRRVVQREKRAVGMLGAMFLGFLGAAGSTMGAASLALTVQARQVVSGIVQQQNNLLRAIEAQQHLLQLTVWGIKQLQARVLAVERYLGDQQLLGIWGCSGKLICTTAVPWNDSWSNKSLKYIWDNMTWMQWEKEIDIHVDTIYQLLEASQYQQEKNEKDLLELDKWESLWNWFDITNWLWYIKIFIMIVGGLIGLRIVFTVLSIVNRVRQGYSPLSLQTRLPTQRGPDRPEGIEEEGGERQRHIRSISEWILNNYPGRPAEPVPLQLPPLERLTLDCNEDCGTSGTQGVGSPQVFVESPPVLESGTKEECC

Row | Structure (SMILES) | IC50
1 | CC(C)(C)c1ccc(OCC(=O)NNC(=S)NC(=O)c2ccccc2[N+](=O)[O-])c(Br)c1 | 28.7 µM (active)
2 | NS(=O)(=O)c1cc(C(=O)NC2CCSc3ccccc32)ccc1Cl (centres undefined) | 8.22 µM (active)
3 | O=C(O)CN1C(=O)/C(=C\c2cc(Br)ccc2OCc2ccc(Cl)cc2Cl)SC1=S | 13.1 µM (active)
4 | CCCCCC(=O)Cc1cc(O)cc2c1C(=O)Oc1cc(O)c(C(=O)O)c(CCCCC)c1O2 [PHYSODIC ACID] | 4.1 µM (active)
